Experimental data as given in ChEMBL document CHEMBL2074446, “Contribution of P-glycoprotein to efflux of ramosetron, a 5-HT3 receptor antagonist, across the blood-brain barrier” (J Pharm Pharmacol, 2002).

Legend:
Type in all cases: functional, cell-based
[1] = target: ATP-dependent translocase ABCB1 (Mus musculus, UniProt P06795); assay: TP_TRANSPORTER: uptake, not inhibited by Verapamil in MBEC4 cell
[2] = target: ATP-dependent translocase ABCB1 (Homo sapiens, UniProt P08183); assay: TP_TRANSPORTER: uptake in LLC-PK1 cell and LLC-GA5-COL300 cells; conditions: pig
Chain of ATP-dependent translocase ABCB1 (Homo sapiens, UniProt P08183) (P08183 whole entry): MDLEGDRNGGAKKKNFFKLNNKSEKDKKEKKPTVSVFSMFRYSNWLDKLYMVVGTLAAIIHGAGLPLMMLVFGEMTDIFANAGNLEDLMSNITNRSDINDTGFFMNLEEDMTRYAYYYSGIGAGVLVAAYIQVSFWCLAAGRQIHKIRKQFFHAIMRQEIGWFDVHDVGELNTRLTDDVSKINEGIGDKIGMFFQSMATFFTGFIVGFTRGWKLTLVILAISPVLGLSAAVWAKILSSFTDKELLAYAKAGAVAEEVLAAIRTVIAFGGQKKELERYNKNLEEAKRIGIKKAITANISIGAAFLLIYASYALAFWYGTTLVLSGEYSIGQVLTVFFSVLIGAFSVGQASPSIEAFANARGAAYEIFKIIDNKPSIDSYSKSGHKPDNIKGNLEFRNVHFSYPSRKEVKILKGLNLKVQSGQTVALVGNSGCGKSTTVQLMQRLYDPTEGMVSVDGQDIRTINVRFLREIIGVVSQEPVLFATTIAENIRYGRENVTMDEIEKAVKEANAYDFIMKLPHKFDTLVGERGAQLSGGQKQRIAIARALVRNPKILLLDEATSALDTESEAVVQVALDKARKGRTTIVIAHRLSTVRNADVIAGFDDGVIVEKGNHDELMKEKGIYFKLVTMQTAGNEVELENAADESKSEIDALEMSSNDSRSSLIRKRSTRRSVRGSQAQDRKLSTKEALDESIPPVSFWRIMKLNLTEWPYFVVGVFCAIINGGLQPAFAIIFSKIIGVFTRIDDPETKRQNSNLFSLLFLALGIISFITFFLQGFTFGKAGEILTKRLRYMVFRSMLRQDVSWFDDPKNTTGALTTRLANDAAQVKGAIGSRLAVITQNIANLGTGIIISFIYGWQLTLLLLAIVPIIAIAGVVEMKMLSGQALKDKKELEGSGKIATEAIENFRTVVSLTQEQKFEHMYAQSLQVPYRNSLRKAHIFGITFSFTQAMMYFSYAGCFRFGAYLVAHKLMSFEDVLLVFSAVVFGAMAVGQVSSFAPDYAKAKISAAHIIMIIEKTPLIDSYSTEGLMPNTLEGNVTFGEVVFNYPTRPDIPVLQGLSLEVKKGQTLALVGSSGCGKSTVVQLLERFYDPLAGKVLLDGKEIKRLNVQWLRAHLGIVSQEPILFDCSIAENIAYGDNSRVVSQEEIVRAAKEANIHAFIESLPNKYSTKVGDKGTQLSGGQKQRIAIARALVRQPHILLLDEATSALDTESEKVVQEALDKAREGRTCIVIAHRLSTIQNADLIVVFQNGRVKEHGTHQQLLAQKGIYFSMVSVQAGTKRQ

[3] = target: ATP-dependent translocase ABCB1 (Mus musculus, UniProt P21447); assay: TP_TRANSPORTER: uptake in L cell and LV500 cell
Chain of ATP-dependent translocase ABCB1 (Mus musculus, UniProt P21447) (P21447 whole entry): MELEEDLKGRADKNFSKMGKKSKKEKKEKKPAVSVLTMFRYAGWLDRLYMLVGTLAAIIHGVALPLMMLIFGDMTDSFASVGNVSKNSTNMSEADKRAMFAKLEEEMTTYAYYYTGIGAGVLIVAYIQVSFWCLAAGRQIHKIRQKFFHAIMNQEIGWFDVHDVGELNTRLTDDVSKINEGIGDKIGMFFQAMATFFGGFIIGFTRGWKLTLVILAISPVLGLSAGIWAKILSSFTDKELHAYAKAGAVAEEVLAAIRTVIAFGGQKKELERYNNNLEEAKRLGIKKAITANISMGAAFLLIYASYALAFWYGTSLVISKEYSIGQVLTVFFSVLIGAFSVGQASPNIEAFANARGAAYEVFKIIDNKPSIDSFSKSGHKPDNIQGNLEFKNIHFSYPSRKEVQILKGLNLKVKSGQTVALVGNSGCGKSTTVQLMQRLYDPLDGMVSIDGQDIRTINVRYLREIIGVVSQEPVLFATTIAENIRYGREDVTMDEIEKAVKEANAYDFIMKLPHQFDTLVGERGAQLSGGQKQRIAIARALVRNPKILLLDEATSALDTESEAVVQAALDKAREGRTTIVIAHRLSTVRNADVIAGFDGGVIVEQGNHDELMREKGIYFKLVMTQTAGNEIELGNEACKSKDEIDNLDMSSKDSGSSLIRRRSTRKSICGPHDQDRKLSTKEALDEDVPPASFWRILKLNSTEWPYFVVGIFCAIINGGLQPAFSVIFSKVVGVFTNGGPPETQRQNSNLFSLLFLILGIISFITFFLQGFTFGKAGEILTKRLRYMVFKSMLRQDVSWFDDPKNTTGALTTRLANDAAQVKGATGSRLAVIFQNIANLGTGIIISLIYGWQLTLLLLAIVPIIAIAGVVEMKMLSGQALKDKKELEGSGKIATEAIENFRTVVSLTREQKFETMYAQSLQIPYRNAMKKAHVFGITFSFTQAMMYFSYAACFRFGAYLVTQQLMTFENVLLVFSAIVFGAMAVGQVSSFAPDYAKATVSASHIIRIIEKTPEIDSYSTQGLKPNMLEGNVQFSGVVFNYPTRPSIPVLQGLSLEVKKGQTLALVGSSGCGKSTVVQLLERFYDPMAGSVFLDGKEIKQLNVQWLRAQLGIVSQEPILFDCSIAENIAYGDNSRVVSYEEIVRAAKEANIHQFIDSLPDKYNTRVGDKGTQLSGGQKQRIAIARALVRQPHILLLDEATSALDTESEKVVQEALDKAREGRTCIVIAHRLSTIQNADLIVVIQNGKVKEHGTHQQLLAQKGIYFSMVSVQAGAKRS

Chain of ATP-dependent translocase ABCB1 (Mus musculus, UniProt P06795) (P06795 whole entry): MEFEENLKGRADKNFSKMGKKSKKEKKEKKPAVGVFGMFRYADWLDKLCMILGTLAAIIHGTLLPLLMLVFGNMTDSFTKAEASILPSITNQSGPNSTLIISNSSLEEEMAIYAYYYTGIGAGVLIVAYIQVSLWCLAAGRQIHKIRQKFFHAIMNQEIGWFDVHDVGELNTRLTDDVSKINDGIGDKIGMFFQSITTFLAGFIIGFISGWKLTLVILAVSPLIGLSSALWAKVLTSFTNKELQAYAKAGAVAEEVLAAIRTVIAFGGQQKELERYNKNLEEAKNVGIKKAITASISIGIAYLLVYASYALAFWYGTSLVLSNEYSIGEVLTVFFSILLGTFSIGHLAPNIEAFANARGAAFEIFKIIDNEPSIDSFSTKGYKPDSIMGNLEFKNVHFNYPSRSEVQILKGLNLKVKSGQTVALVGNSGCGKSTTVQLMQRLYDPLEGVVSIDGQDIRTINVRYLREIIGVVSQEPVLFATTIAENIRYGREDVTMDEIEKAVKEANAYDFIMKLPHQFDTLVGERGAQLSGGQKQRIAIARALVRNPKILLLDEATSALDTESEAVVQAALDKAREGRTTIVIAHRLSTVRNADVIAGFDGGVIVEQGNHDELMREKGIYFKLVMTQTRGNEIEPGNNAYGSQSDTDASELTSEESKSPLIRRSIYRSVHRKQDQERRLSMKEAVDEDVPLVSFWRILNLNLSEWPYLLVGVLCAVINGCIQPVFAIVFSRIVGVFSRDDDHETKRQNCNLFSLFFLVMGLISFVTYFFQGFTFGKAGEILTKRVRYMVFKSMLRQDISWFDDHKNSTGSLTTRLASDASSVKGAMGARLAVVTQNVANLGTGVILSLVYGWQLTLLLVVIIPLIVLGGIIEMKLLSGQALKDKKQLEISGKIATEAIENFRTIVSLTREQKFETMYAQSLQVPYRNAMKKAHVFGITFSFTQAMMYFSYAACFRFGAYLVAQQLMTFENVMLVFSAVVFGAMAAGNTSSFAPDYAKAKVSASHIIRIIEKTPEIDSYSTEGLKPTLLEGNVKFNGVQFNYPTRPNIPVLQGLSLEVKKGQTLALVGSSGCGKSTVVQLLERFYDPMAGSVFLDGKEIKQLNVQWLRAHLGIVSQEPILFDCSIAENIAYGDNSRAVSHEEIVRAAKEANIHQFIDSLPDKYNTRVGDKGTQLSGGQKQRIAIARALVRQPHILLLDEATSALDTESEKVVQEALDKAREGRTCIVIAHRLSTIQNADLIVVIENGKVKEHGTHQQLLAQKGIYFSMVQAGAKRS

## Cn1cc(C(=O)[C@@H]2CCc3nc[nH]c3C2)c2ccccc21 [RAMOSETRON]
[1]
  Activity: is not a substrate [-]
[2]
  Activity: substrate [+]
[3]
  Activity: substrate [+]
